Results from publication PMC6399351, “Cationic Intrinsically Disordered Antimicrobial Peptides (CIDAMPs) Represent a New Paradigm of Innate Defense with a Potential for Novel Anti-Infectives” (Scientific Reports, 2019).
In brackets after ≈: the same amount, converted by molar mass. Like-named read-outs stand apart in the source and are kept apart here. Square brackets hold non-standard residues; d marks the D form. Peptide text beside a SMILES is read from it. * marks the point of attachment. Palmitoyl = CCCCCCCCCCCCCCCC(=O)*

B1: rHRNR1075–1172: recombinant HRNR fragment (protein, UniProt Q86YZ3 1075-1172, looked up, fragment)
chain: THGQHGSTSGQSSSCGQHGASSGQSSSHGQHGSGSSQSSGYGRQGSGSGQSPGHGQRGSGSRQSPSYGRHGSGSGRSSSSGQHGSGLGESSGFGHHES

What was measured:
P. aeruginosa ATCC 10145 = conditions: CFU assay, 10 mM NaP
C. albicans ATCC 24433 = assay: CFU assay of antimicrobial activity; type: cell-based, Candida albicans; conditions: 10 mM NaP, pH 5.5, 1% TSB
Protocol: Bacteria were cultivated in either brain heart infusion medium (BHI), lysogeny broth (LB) or tryptic soy broth (TSB)[88]. If not otherwise stated, bacteria were incubated under shaking conditions (37 °C at 170 rpm) or as indicated on the ATCC- or DSM-data sheets. Candida albicans was cultured for 3 days on Yeast Extract-Peptone Dextrose (YPD) agar at 30 °C and yeast suspensions at appropriate density were treated with CIDAMPs as indicated.
(§1) All purified peptides and recombinant proteins were applied using a colony forming unit (CFU) assay in different media. Bacteria were grown to early log-phase in BHI, washed either with 10 mM Na-P, pH 7.4/1% TSB or pH 5.5/1% TSB, or pH 5.5 without TSB or BHI, and adjusted to a concentration of 10^4–10^5 colony forming units (CFU)/ml. For cell number control, 100 µl aliquots were diluted 1:10, 1:100 and 1:1000 and plated in duplicates on BHI agar plates. To 100 µl aliquots of the bacteria, suspended in the respective medium (10 mM Na-P buffer pH 7,0–7,4/ 1% (w/v) TSB; 10 mM Na-P buffer pH 5,5/ 1% (w/v) TSB; 10 mM Na-P buffer pH 7,0–7,4/ 1% (w/v) TSB pH 7,0–7,4/ 0,25% (w/v) glucose; 10 mM Na-P buffer pH 5,5/ 0,25% (w/v) glucose, respectively), 10 µl of a solution of the peptide or protein (two-fold dilutions, from 300 µg/ml or 150 µg/ml down to 19 ng/ml), dissolved in 0.01% (v/v) acetic acid, were added.
(§2) Then bacteria were incubated for 2 h at ambient temperature, if not otherwise stated. 10 µl of 0.01% (v/v) acetic acid, added to 100 µl aliquots of the bacteria in the respective medium, served as negative control. From each test, 1:10 and 1:100 dilutions were generated and plated as duplicates of 100 µl aliquots on BHI agar plates. After 16 h incubation at 37 °C, CFU were counted using a colony counter (Bio Kobe, Japan) and expressed as mean of the duplicate estimation to achieve a complete dose-response curve. All experiments were performed at serial dilutions in a concentration range of 100 µg/mL −25 ng/mL for recombinant HRNR fragments and 300 or 150 µg/mL–19 ng/mL for synthetic peptides.

E. coli ATCC 11775 = assay: CFU assay of antimicrobial activity; type: cell-based, Escherichia coli; conditions: 10 mM NaP, pH 5.5, 1% TSB
Protocol: as §1, §2

[1] = tested on: Staphylococcus aureus ATCC 43300; conditions: MRSA; CLSI, Mueller–Hinton broth, 5 × 10^5 CFU/mL, 18 h 37 °C, by CO-ADD
[2] = tested on: Cryptococcus neoformans ATCC 208821; assay: CO-ADD MIC, antifungal assay (CLSI); type: cell-based; conditions: Yeast Nitrogen Base broth, 24 h 35 °C, by CO-ADD
Protocol: (§3) Fungi strains were cultured for 3 days on Yeast Extract-Peptone Dextrose (YPD) agar at 30 °C. A yeast suspension of 1 × 10^6 to 5 × 10^6 cells/mL (as determined by OD530) was prepared from five colonies. These stock suspensions were diluted with Yeast Nitrogen Base (YNB) broth to a final concentration of 2.5 × 10^3 CFU/mL. […] Plates were covered and incubated at 35 °C for 24 h without shaking.

[3] = tested on: Candida albicans ATCC 90028; assay: CO-ADD MIC, antifungal assay (CLSI); type: cell-based; conditions: Yeast Nitrogen Base broth, 24 h 35 °C, by CO-ADD
Protocol: as §3

S. aureus ATCC 6538 = conditions: CFU assay
[4] = tested on: Acinetobacter baumannii ATCC 19606; assay: CO-ADD MIC, broth microdilution (CLSI); type: cell-based; conditions: Mueller–Hinton broth, 5 × 10^5 CFU/mL, 18 h 37 °C, by CO-ADD
Description: (§4) They were defined as the lowest peptide
(§5) Further details of the screening

[5] = tested on: Pseudomonas aeruginosa ATCC 27853; assay: CO-ADD MIC, broth microdilution (CLSI); type: cell-based; conditions: Mueller–Hinton broth, 5 × 10^5 CFU/mL, 18 h 37 °C, by CO-ADD
Description: as §4, §5

E. coli ATCC 25922 = assay: CO-ADD MIC, broth microdilution (CLSI); type: cell-based, Escherichia coli; conditions: Mueller–Hinton broth, 5 × 10^5 CFU/mL, 18 h 37 °C, by CO-ADD
Description: as §4, §5

[6] = tested on: Klebsiella pneumonia ATCC 700603; conditions: MDR strain; CLSI, Mueller–Hinton broth, 5 × 10^5 CFU/mL, 18 h 37 °C, by CO-ADD
[7] = 10 mM NaP, pH 5.5, 0.25% glucose
[8] = 10 mM NaP, pH 7.0, 0.25% glucose

Molecule	Minimal inhibitory concentration (MIC) [1] [µg/mL]	Minimal inhibitory concentration (MIC) [2] [µg/mL]	Minimal inhibitory concentration (MIC) [3] [µg/mL]	LD90 (S. aureus ATCC 6538; [7]) [µg/mL]	LD99 (concentration of peptide which kills 99.0% of inoculum) (S. aureus ATCC 6538; [7]) [µg/mL]	Minimal inhibitory concentration (MIC) [4] [µg/mL]	Minimal inhibitory concentration (MIC) [5] [µg/mL]	Minimal inhibitory concentration (MIC) (E. coli ATCC 25922) [µg/mL]	Minimal inhibitory concentration (MIC) [6] [µg/mL]	further results
rHRNR2638–2684: recombinant HRNR fragment (QSSGHGRQGSGSGQSPSRGRHGSGLGHSSSHGQHGSGSGRSSSRGPY; UniProt Q86YZ3 2638-2684, looked up, fragment)	–	–	–	–	–	–	–	–	–	LD90 (P. aeruginosa ATCC 10145; pH 5.5, 1% TSB): 0.39 µg/mL; LD100 (P. aeruginosa ATCC 10145; pH 5.5, 1% TSB): 12.5 µg/mL; LD90 (C. albicans ATCC 24433): 6.3 µg/mL; LD100 (C. albicans ATCC 24433): >100 µg/mL; LD90 (E. coli ATCC 11775): 3.1 µg/mL; LD100 (E. coli ATCC 11775): >100 µg/mL
CCCCCCCCCCCCCCCC(=O)NCC(=O)N[C@@H](CCCNC(=N)N)C(=O)NCC(=O)N[C@@H](CCCNC(=N)N)C(=O)O [Pal-GR4] (Palmitoyl-GRGR-OH)	8 (≈ 11.7 µM)	8 (≈ 11.7 µM)	8 (≈ 11.7 µM)	2.35	4.7	>32	>32	>32	>32	LD90 (S. aureus ATCC 6538; value in molar units): 3.4 µM
CCCCCCCCCCCCCCCC(=O)NCC(=O)N[C@@H](CCCNC(=N)N)C(=O)N[C@@H](CCCNC(=N)N)C(=O)NCC(=O)NCC(=O)N[C@@H](CCCNC(=N)N)C(=O)NCC(=O)NCC(=O)N[C@@H](CCCNC(=N)N)C(=O)O [Pal-GR9] (Palmitoyl-GRRGGRGGR-OH)	8 (≈ 6.86 µM)	>32	>32	1.18	4.7	>32	>32	>32	>32	–
N=C(N)NCCC[C@H](NC(=O)[C@H](CCCNC(=N)N)NC(=O)[C@H](CS)NC(=O)[C@H](CCCNC(=N)N)NC(=O)[C@H](Cc1c[nH]cn1)NC(=O)[C@H](CO)NC(=O)[C@H](CCCNC(=N)N)NC(=O)[C@H](CS)NC(=O)[C@H](CS)NC(=O)[C@H](CCCNC(=N)N)NC(=O)[C@H](Cc1c[nH]cn1)NC(=O)[C@H](Cc1c[nH]cn1)NC(=O)[C@@H](N)CO)C(=O)O [LCE-3B56-68] (H-SHHRCCRSHRCRR-OH)	32 (≈ 18.9 µM)	8 (≈ 4.72 µM)	>32	0.075	–	>32	>32	>32	>32	LD90 (S. aureus ATCC 6538; value in molar units): 0.044 µM
CCCCCCCCCCCCCCCC(=O)NCC(=O)N[C@@H](CCCNC(=N)N)C(=O)N[C@@H](CCCNC(=N)N)C(=O)NCC(=O)N[C@@H](CO)C(=O)NCC(=O)N[C@@H](CC(C)C)C(=O)NCC(=O)N[C@@H](CCCNC(=N)N)C(=O)N[C@@H](CO)C(=O)N[C@@H](CO)C(=O)N[C@@H](CO)C(=O)N[C@@H](CCCNC(=N)N)C(=O)O [Pal-HR 1-18-3H3R-GR13] (Palmitoyl-GRRGSGLGRSSSR-OH)	16 (≈ 10.2 µM)	16 (≈ 10.2 µM)	>32	2.35	–	16 (≈ 10.2 µM)	>32	>32	>32	–
rHRNR2656–2684: recombinant HRNR fragment (GRHGSGLGHSSSHGQHGSGSGRSSSRGPY; UniProt Q86YZ3 2656-2684, looked up, fragment)	–	–	–	–	–	–	–	–	–	LD90 (P. aeruginosa ATCC 10145; pH 5.5, 1% TSB): 0.78 µg/mL; LD100 (P. aeruginosa ATCC 10145; pH 5.5, 1% TSB): 12.5 µg/mL; LD90 (C. albicans ATCC 24433): 6.3 µg/mL; LD100 (C. albicans ATCC 24433): >100 µg/mL; LD90 (E. coli ATCC 11775): 3.1 µg/mL; LD100 (E. coli ATCC 11775): >100 µg/mL
CCCCCCCCCCCCCCCC(=O)NCC(=O)N[C@@H](CCCNC(=N)N)C(=O)N[C@@H](CCCNC(=N)N)C(=O)NCC(=O)NCC(=O)N[C@@H](CCCNC(=N)N)C(=O)NCC(=O)NCC(=O)N[C@@H](CCCNC(=N)N)C(=O)NCC(=O)N[C@@H](CCCNC(=N)N)C(=O)O [Pal-GR11] (Palmitoyl-GRRGGRGGRGR-OH)	4 (≈ 2.9 µM)	4 (≈ 2.9 µM)	4 (≈ 2.9 µM)	–	–	8 (≈ 5.8 µM)	16 (≈ 11.6 µM)	8 (≈ 5.8 µM)	>32	LD90 (S. aureus ATCC 6538; 10 mM NaP, pH 7.3, 1% TSB): 0.3 µg/mL; LD99 (concentration of peptide which kills 99.0% of inoculum) (S. aureus ATCC 6538; 10 mM NaP, pH 7.3, 1% TSB): 1.18 µg/mL
CCCCCCCCCCCCCCCC(=O)NCC(=O)N[C@H](CCCNC(=N)N)C(=O)N[C@H](CCCNC(=N)N)C(=O)NCC(=O)NCC(=O)N[C@H](CCCNC(=N)N)C(=O)NCC(=O)NCC(=O)N[C@H](CCCNC(=N)N)C(=O)NCC(=O)N[C@H](CCCNC(=N)N)C(=O)NCC(=O)N[C@H](CCCNC(=N)N)C(=O)O [(D)-Pal-GR13] (Palmitoyl-G[dR][dR]GG[dR]GG[dR]G[dR]G[dR]-OH; C-terminus assumed)	2 (≈ 1.26 µM)	2 (≈ 1.26 µM)	8 (≈ 5.02 µM)	0.075	0.59	8 (≈ 5.02 µM)	16 (≈ 10 µM)	8 (≈ 5.02 µM)	≥32	LD90 (P. aeruginosa ATCC 10145; pH 5.5, 0.25% glucose): 0.075 µg/mL; LD100 (P. aeruginosa ATCC 10145; pH 5.5, 0.25% glucose): 0.3 µg/mL; LD100 (S. aureus ATCC 6538; [7]): 75 µg/mL
CCCCCCCCCCCCCCCC(=O)NCC(=O)N[C@@H](CCCNC(=N)N)C(=O)N[C@@H](CCCNC(=N)N)C(=O)NCC(=O)NCC(=O)N[C@@H](CCCNC(=N)N)C(=O)O [Pal-GR6] (Palmitoyl-GRRGGR-OH)	16 (≈ 17.9 µM)	16 (≈ 17.9 µM)	>32	2.35	4.7	>32	>32	>32	>32	–
GRRGSGLGRSSSRGGRGSGSGR [HR 1-18,4H-4R]	>32	>32	>32	150	–	>32	>32	>32	>32	LD100 (P. aeruginosa ATCC 10145; pH 5.5, 0.25% glucose): 0.15 µg/mL; LD100 (S. aureus ATCC 6538; [7]): > 300 µg/mL; LD100 (S. aureus ATCC 6538; [8]): > 300 µg/mL; max.killing (S. aureus ATCC 6538; [8]): 98.8%
B1	–	–	–	–	–	–	–	–	–	LD90 (P. aeruginosa ATCC 10145; pH 5.5, 1% TSB): 6.25 µg/mL; LD100 (P. aeruginosa ATCC 10145; pH 5.5, 1% TSB): >100 µg/mL; LD90 (C. albicans ATCC 24433): 1.6 µg/mL; LD100 (C. albicans ATCC 24433): 12.5 µg/mL; LD90 (E. coli ATCC 11775): 6.25 µg/mL; LD100 (E. coli ATCC 11775): >100 µg/mL
